This assay addresses Babesia microti lactate dehydrogenase (BmLDH) (Babesia microti, UniProt I7J7V6). Kind of assay: NADH formation at […] nm, […] NAD+ and […] lactate, non-linear regression. It counts as biochemical.

A word on the IC50: it is the concentration that inhibits the measured activity by half. A lower IC50 goes with greater potency.

Babesia microti lactate dehydrogenase (BmLDH), sequence (I7J7V6 1-332): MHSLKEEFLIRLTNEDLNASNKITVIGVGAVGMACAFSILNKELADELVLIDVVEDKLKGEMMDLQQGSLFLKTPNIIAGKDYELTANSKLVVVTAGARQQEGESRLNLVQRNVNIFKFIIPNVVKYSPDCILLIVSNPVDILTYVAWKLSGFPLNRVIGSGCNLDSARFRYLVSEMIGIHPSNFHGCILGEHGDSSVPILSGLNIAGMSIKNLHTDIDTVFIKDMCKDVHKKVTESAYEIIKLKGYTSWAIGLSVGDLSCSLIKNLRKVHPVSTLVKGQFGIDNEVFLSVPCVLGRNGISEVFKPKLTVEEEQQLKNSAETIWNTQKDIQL

As to `Cc1cc2c(C(C)C)c(O)c(O)c(C=O)c2c(O)c1-c1c(C)cc2c(C(C)C)c(O)c(O)c(C=O)c2c1O` [gossypol], the 50% inhibitory concentration (IC50) was determined as 345 ± 1.11 nM.
